The text below walks through data of patent US11464749B2, “Bismuth-thiol compositions and methods of use” (Microbion Corporation, priority 2018, dated 2022).

Entries after “also recorded” stand apart in the source; their conditions may differ. Read-outs that look alike come from different tables or passages of the source.

Data set [1] relates to fully differentiated human airway epithelium (MUCILAIR™). The experiment in a line: Acute toxicity on […] (LDH release, TEER, morphology). The data set is classed as cell-based. As for the experimental part:
Controlled in vitro evaluation of BisEDT, with respect to potential cytotoxicity on fully differentiated human airway epithelium was carried out. Both solubilized and solid (powder/particulate) forms of BisEDT were evaluated for cytotoxicity by Epithelix, a contract research organization (CRO) specializing in this form of cytotoxicity evaluation utilizing a proprietary, in vitro fully differentiated human airway epithelium test system ([…]™) The […]™ system facilitated evaluation of cytotoxicity through both LDH release (from the culture medium side) and trans-epithelial electrical resistance (TEER) from the apical/air-exposed side as well as pre- and post-exposure microscopic examination for morphological changes (FIG. 13).
The assay system used in this study is Epithelix's proprietary technology […]™ […]™ is a fully differentiated and ready-to-use 3D model of human airway epithelium, constituted with primary human epithelial cells freshly isolated from nasal, tracheal or bronchial biopsies. […]™ (FIG. 24), is not only morphologically and functionally differentiated, but can also be maintained in a homeostatic state for a long period of time (Huang et al., 2009).
[…]™ is composed of basal cells, ciliated cells and mucus cells. The proportion of these various cell types is preserved compared to what one observes in vivo (Huang et al., 2011). Moreover the epithelia are started from de-differentiated cells. The cells undergo a progressive differentiation with time. After 45 days of culture, the epithelia are fully ciliated, secret mucus and are electrically tight (TEER>200 Ω.cm^2). The activity of the main epithelial ionic channels, such as CFTR, EnaC, Na/K ATPase, is preserved and the epithelia is shown to respond in a regulated and vectorial manner to the pro-inflammatory stimulus, TNF-α (Huang et al., 2011). A large panel of cytokines, chemokines and metalloproteinases has been detected in […]™ (e.g. IL-8, IL-6, GM-CSF, MMP-9, GRO-α).
BisEDT (MB-1-B3) was applied on the apical surface of […]™ during 1, 8, 24 and 48 hours (FIG. 13). The effect of 6 concentrations was studied: 0.001, 0.01, 0.1, 1, 10 and 30 μM. […] 30 μl solution at the selected concentration was applied on the apical surface of […]™. The negative control corresponds to the vehicle solution (0 μM) and untreated cultures. The positive control corresponds to 50 μl to 10% Triton X-100 diluted in a buffered saline solution. The study was run in triplicates.
During the study, inserts were maintained in a CO2 incubator (37° C., 5% CO2, 100% humidity). The following end-points were determined: • Tissue integrity monitoring: Trans-Epithelial Electrical Resistance (TEER) measurement (quantitative) at D0, D1 and D2. • Cytotoxicity monitoring: LDH test (quantitative) at D0, D1 and D2. • Morphology: cellular and tissue integrity examined under contrast microscope at D0, D1 and D2.
Three days before the experiment, the following quality controls were performed on each epithelium: • Washing: inserts were washed with 200 μl of […]™ culture medium. Washing removes accumulated mucus on the tissue surface which may interfere with the test. • Trans-Epithelial Electrical Resistance (TEER): TEER was measured to verify that all the selected inserts had tight epithelial barriers and the tissue itself was not disrupted prior to application of the test material. • Tissue morphology: each insert was inspected under a conventional inverted microscope to ensure the quality of the epithelia and determine qualitatively that cilia motion was visible. The presence of mucus was detected by the refractive aspect of the apical surface. Results
Compound BisEDT was applied on the apical surface of […]™. The effect of 5 concentrations after 1, 8,24 and 48 hours exposure was studied: 0.033, 0.33, 3.33, 33.3, 333 μg/cm^2. […]

Data set [2] relates to Pseudomonas aeruginosa. The following applies: P. aeruginosa MMX 103 (ATCC 27853); CLSI QC ranges shown in parenthesis; cited from earlier work.
For data set [3], the system named is S. maltophilia. The experiment in a line: MIC against CF bacterial strains (Example 5). The note with it: Stenotrophomonas maltophilia.
In data set [4] the test system is A. terreus. The experiment in a line: Broth microdilution antifungal susceptibility (Example 13). The class given is cell-based. The note with it: Aspergillus terreus, A. terreus MMX 8229. On the technique in general: In broth dilution the organism is exposed to a series of concentrations in liquid medium.
The subject of data set [5] is MABSC / M. abscessus biofilms. The experiment in a line: Activity against CF-isolate biofilms. The class given is cell-based. The note with it: AMT0130-8 (MABSC CF-isolate).
The mark [6] stands for this setting: solid, 0.033 and 0.33 μg/cm^2, all tested time points.
Where [7] appears, read: solution, all tested concentrations and time points.

With `C1C[S][Bi]([S]CC[S][Bi]2[S]CC[S]2)[S]1` [BisEDT, bismuth-1,2-ethanedithiol], the “toxic effects (morphology, LDH release, TEER), BisEDT in solution” value in data set [1] (0.001-30 μM (30 uM = 20.83 ug/mL) apical, 1, 8, 24, 48 hours) was “no toxic effects were observed; also recorded: no local toxicity”. Also, the “toxic effects (morphology, LDH release, TEER), particulate BisEDT in dextran” value in data set [1] (lower two concentrations (0.033, 0.33 μg/cm^2), up to 48 hours) is “no toxic effects were observed”. For the same compound, the “TEER (tissue integrity)” value in data set [1] (solid, 1 μg/cm^2, 8, 24 and 48H) is reported as “Loss of tissue integrity”; in data set [1] (solid, 1 μg/cm^2, 1 hour), “no significant effect”; in data set [1] (setting [6]), “No significant effect”; in data set [1] (solid, 3.33, 33.3 and 333 μg/cm^2, 8, 24 and 48H exposure), “Loss of tissue integrity”; in data set [1] (solid, all tested doses, 1 hour exposure) it was “no significant effect”; in data set [1] (setting [7]), “didn't show significant effect”. The “LDH release (cytotoxicity)” value in data set [1] (solid, 1 μg/cm^2, 8, 24 and 48 h) is “time- and dose-dependent cytotoxicity”; in data set [1] (solid, 1 μg/cm^2, 1 hour), “No significant effect”; in data set [1] (setting [6]), “No significant effect”; in data set [1] (solid, 3.3, 33.3 and 333 μg/cm^2, beyond 1 hour), “time and dose dependent increase in LDH release; also recorded: time and dose dependent, cytotoxicity”; in data set [1] (solution, all tested concentrations and time-points), “not altered”. The Morphology after exposure result was “no important morphological changes were observed” in data set [1] (solid, 1 μg/cm^2, 1 hour and 8 hour); “epithelial cells on 2 inserts out of 3 were dead” in data set [1] (solid, 1 μg/cm^2, 24 h); “epithelial cells on all 3 inserts were dead” in data set [1] (solid, 1 μg/cm^2, 48 h); “Cells were rounded and opaque at the periphery of inserts” in data set [1] (solid, 3.33 μg/cm^2, 24 and 48 h); “No morphological modifications were observed” in data set [1] (solid, 0.033 and 0.33 μg/cm^2); “Cells were rounded and opaque on the inserts” in data set [1] (solid, 33.3 and 333 μg/cm^2, 8, 24 and 48 h). For the same compound, the Morphology after exposure result in data set [1] (setting [7]) is reported as “No morphology changes were observed”. Moreover, in data set [1] (solid, 1 and 3.33 μg/cm^2, 24 h and 48 h), the “cytotoxicity (LDH increase, TEER reduction)” value is listed as “induces cytotoxicity”. For the same compound, the “toxicity (LDH, TEER, morphology)” value in data set [1] (solid, 33.3, 333 μg/cm^2) is on record as “strong toxicity”.
For the compound `C[C@@H](O)[C@H]1C(=O)N2C(C(=O)O)=C(S[C@@H]3CN[C@H](C(=O)N(C)C)C3)[C@H](C)[C@H]12` [Meropenem, reference compound], in data set [2], the “CLSI QC range of MIC” value is recorded as “(0.25-1) μg/mL”.
For `CC(S)C(C)S.[Bi]` (stereo not drawn) [BisBDT, bismuth-2,3-butanedithiol], the MIC in data set [3] came to 0.13 µg/mL; in data set [4] (24 hr, read-out: MIC0 24 hr) it was 0.25 µg/mL; in data set [4] (48 hr, read-out: MIC0 48 hr) it was 1 µg/mL. The “reduction in biofilm cell viability” value in data set [5] is “only very modest reductions”.
